What was measured:
[1] = tested on: Cyp11a1; assay: Immunoblot analysis of Cyp11a1 protein in CD8+ T cells; type: cell-based, mouse; details: IL-2+IL-4, 500 μM AMG, with or without SIINFEKL re-stimulation
Procedure: In brief, mononuclear cells (MNCs) were processed from the spleens of OT-1 mice followed by stimulation of 1 μg/ml [sequence] peptide (SEQ ID NO:1) was used to stimulate cells for 1.5 hours. Two days after culture, living cells were re-isolated using histopaque and cultured in complete RPMI 1640 medium that contained recombinant mouse IL-2 (20 ng/ml) (R&D, Minneapolis, Minn.) or IL-2+IL-4 (20 ng/ml) (Peprotech, Rocky Hill, N.J.). For some experiments, AMG was added into the medium together with IL-2 or IL-2+IL-4. Medium with cytokines was changed every day for a further 4 days. The cells were then re-stimulated with 1 μg/ml [sequence] (SEQ ID NO:1) in medium containing 2 μM monensin (Calbiochem, La Jolla, Calif.) for 4 hours.
CD8^+ T cells (5×10^6) were lysed with RIPA buffer containing Hale™ protease and phosphatase inhibitor cocktail (Thermo Scientific, Rockford, Ill.) on ice for 30 minutes. Samples were run by sodium dodecyl sulfate polyacrylamide gel electrophoresis (SDS-PAGE) and transferred to nitrocellulose membranes. […] Immunoreactive bands of Western blottings were quantified by densitometric quantification of autoradiographs using Image J (NIMH, Bethesda, Md.), and expressed as relative Cyp11a1 normalized by β-actin.

[2] = tested on: CD4 T cells; assay: Th1, Th2, Th17 differentiation of naive CD4 T cells in vitro; type: cell-based, mouse
Procedure: Levels of IL-4, IL-13, IL-17A, and IFN-γ in cell culture supernatants were measured by ELISA (eBioscience, San Diego, Calif.) as described by the manufacturer. Pregnenolone levels in serum and cell culture supernatants were measured by ELISA (ALPCO Diagnostics, Salem, N.H.), as described by the manufacturer. Differentiation of Th1, Th2, or Th17 cells was performed as previously described with minor changes (Ashino, S., et al. Intl. Immunol. 22:503-513 (2010)). CD4^+CD45RB^+ T cells were isolated from naive TCR-transgenic mice (OT II mice) spleen using a cell sorter (MoFlo XDP, Beckman Coulter). In the presence of mitomycin-C-treated spleen cells, 5 μg/ml OVA323-339 peptide, and the inhibitor AMG ([…]), isolated naive CD4 T cells were cultured with rmIL-2 (10 ng/ml, R/D Systems), rmIL-12 (10 ng/ml, Peprotech), rmIFN-γ (5 ng/ml, Peprotech), and anti-IL-4 mAbs (10 μg/ml, eBioscience) to induce Th1 cell differentiation; with rmIL-2 (10 ng/ml, R/D Systems), rmIL-4 (5 ng/ml, Peprotech), and anti-IFN-γ mAb (10 μg/ml, eBioscience) for differentiation of Th2 cells; and […], Peprotech), anti-IL-4 mAb (10 μg/ml, eBioscience), and anti-IFN-γ mAb (10 μg/ml, eBioscience) for differentiation of Th17 cells. After 6 days of culture, the cells were washed with fresh medium and restimulated with anti-CD3/anti-CD28 for 24 hrs for assay of cytokine production. The cells were collected for quantitative RT-PCR and Western blot. In some experiments (for transduction experiment), the cells were cultured under Th1, Th2, and Th17 polarizing conditions for 5 days as described in Methods. Cultured cells were lysed as previously described (Ohnishi, H., et al. J. Allergy Clin. Immunol. 121:864-871 (2008)). Lysates were resolved by means of SDS-PAGE and transferred to nitrocellulose membranes. Proteins were detected using antibodies specific for Cyp11a1 (LifeSpan Biosciences. Seattle, Wash.) followed by chemiluminescence detection (GE Healthcare, Little Chalfont, UK). RNA was extracted from jejunal tissue homogenates or from CD4 T cells cultured in vitro using Trizol (Invitrogen). cDNA was generated using the iScript cDNA synthesis kit (Bio-Rad Laboratories, Hercules, Calif.). Quantitative real-time PCR was performed on the ABI Prism 7300 sequence detection system (Applied Biosystems, Foster City, Calif.). All primers and probes used were purchased as Tagman Gene Expression Assays from Applied Biosystems. Fold change was calculated using the Delta Delta cycle threshold (ΔΔCT) method.

[3] = tested on: Balb/c mice; assay: Peanut-induced intestinal allergy model (PE sensitized and challenged mice); type: in vivo, mouse
Procedure: The experimental protocol for sensitization and challenge to peanut was previously described (Wang, M., et al. J. Allergy Clin. Immunol. 126, 306-316 (2010).
AMG was dissolved in 1 M hydrogen chloride and diluted with saline for in vivo studies or diluted with RPMI medium for in vitro study. The final concentration of 1 M hydrogen chloride was less than 1% and 0.05% for in vivo and in vitro, respectively. PE sensitized and challenged mice received different doses (5, 10, 20 mg/kg) of the Cyp11a1 enzyme inhibitor (PE/PE/AMG) by means of gavage using a 22-gauge feeding needle (Fisher Scientific) twice a day during the peanut challenge phase. Controls included PE sensitized and challenged but vehicle (saline) treated (PE/PE/vehicle), or sham sensitized but PE challenged and vehicle-treated (PBS/PE/vehicle) mice.
Anaphylactic symptoms were evaluated 30 minutes after the oral challenge, as previously reported (Li, X. M., et al. J. Allergy Clin. Immunol. 106:150-158 (2000)). Briefly, 0: no symptoms; 1: scratching and rubbing around the nose and head; 2: puffiness around the eyes and mouth, diarrhea, pilar erecti, reduced activity, and/or decreased activity with increased respiratory rate; 3: wheezing, labored respiration, and cyanosis around the mouth and the tail; 4: no activity after prodding or tremor and convulsion; and 5: death. Scoring of symptoms was performed in a blinded manner by an independent observer.
The jejunum was processed and stained with periodic acid-Schiff (PAS) and chloroacetate esterase for detection of mucosal mucus-containing cells and mast cells respectively, as previously described (Wang, M., et al. J. Allergy Clin. Immunol. 126, 306-316 (2010); Tomkinson, A., et al. Am. J. Respir. Crit. Care Med. 163, 721-730 (2001)). Numbers of mucosal cells expressing Cyp11a1 were identified by immunohistochemical (IHC) staining using anti-human Cyp11a1 antibody (Abcam, Cambridge, Mass.).
Serum peanut-specific IgE, IgG1, and IgG2a levels were measured by ELISA, as described previously (Payne, A. H. Biol. Reprod. 42, 399-404 (1990)).
Levels of histamine in plasma were measured using an enzyme immunoassay histamine kit (Beckman Coulter, Fullerton, Calif.), as described by the manufacturer. The concentration of histamine was calculated from a standard curve provided by the manufacturer.
RNA was extracted from jejunal tissue homogenates or from CD4 T cells cultured in vitro using Trizol (Invitrogen). cDNA was generated using the iScript cDNA synthesis kit (Bio-Rad Laboratories, Hercules, Calif.). Quantitative real-time PCR was performed on the ABI Prism 7300 sequence detection system (Applied Biosystems, Foster City, Calif.). All primers and probes used were purchased as Tagman Gene Expression Assays from Applied Biosystems. Fold change was calculated using the Delta Delta cycle threshold (ΔΔCT) method.

[4] = polarized Th1, Th2 or Th17 cells, AMG 400 μM

CCC1(c2ccc(N)cc2)CCC(=O)NC1=O (stereo not shown) [AMG, aminoglutethimide]
Cyp11a1 protein levels (immunoblot) [1]: did not prevent IL-4-induced increases in Cyp11a1 protein levels | IFNG mRNA expression ([2]; Th1 cells): no significant effects | Pregnenolone levels in culture supernates ([2]; Th2 cells, AMG 400 μM): significantly decreased | Pregnenolone levels in culture supernates ([2]; Th17 cells, AMG 400 μM): the decreases did not reach statistical significance | Cyp11a1 mRNA expression levels [2, 4]: did not suppress | Cyp11a1 protein expression levels [2, 4]: did not suppress | IFN-γ levels in culture supernatants ([2]; polarized Th1 cell cultures): not affected | T-bet mRNA expression ([2]; polarized Th1 cells, 400 μM): did not have any effect | IL-13 levels in culture supernatants ([2]; polarized Th2 cell cultures): decreased | IL13 mRNA ([2]; polarized Th2 cells): decreased | GATA3 mRNA expression ([2]; polarized Th2 cells, 400 μM): did not have any effect | IL-17A levels in culture supernatants ([2]; polarized Th17 cell cultures): decreased | IL17A mRNA ([2]; polarized Th17 cells): decreased | RORγt mRNA expression ([2]; polarized Th17 cells, 400 μM): did not have any effect | Clinical symptoms ([3]; 5 mg/kg): no observed inhibitory effects | Diarrhea occurrence ([3]; 5 mg/kg): no observed inhibitory effects | Diarrhea ([3]; 10 mg/kg): partially inhibited | Symptom scores ([3]; 10 mg/kg): partially inhibited | Numbers of mast cells in the mucosa of the small intestine ([3]; 20 mg/kg): markedly reduced | Numbers of mucus-producing goblet cells in the mucosa of the small intestine ([3]; 20 mg/kg): markedly reduced | Clinical symptom scores ([3]; 20 mg/kg, 30 minutes after oral challenge): significantly diminished | Development of diarrhea ([3]; 20 mg/kg, gavage twice a day during challenge phase): fully prevented | Cyp11a1 mRNA in the small intestine ([3]; AMG 20 mg/kg): did not affect | GATA3 mRNA expression in the small intestine ([3]; AMG 20 mg/kg): not affected | IL4 mRNA expression in the small intestine ([3]; AMG 20 mg/kg): reduced to baseline levels | IL13 mRNA expression in the small intestine ([3]; AMG 20 mg/kg): reduced to baseline levels | IL17A mRNA expression in the small intestine ([3]; AMG 20 mg/kg): reduced to baseline levels | Numbers of Cyp11a1-positive cells in the small intestine ([3]; AMG 20 mg/kg): did not affect | RORγt mRNA expression in the small intestine ([3]; AMG 20 mg/kg): not affected | T-bet mRNA expression in the small intestine ([3]; AMG 20 mg/kg): not affected | Plasma histamine levels ([3]; AMG 20 mg/kg, within 30 minutes of the last challenge): significantly lower | Serum peanut-specific IgE ([3]; AMG given after sensitization): unaffected | Serum peanut-specific IgG1 ([3]; AMG given after sensitization): unaffected | Serum peanut-specific IgG2a ([3]; AMG given after sensitization): unaffected
